Assay results as given in paper PMC10985088, “Synthesis and biological evaluation of echinomycin analogues as potential colon cancer agent” (Scientific Reports, 2024).

Tests used:
MIA PaCa-2 cells = details: read-out: IC50 MIA PaCa-2; human pancreatic carcinoma cell, 72 h, mean ± SE (n = 3)
Procedure: (§1) With a range of chromophore analogues in hand, their toxicity to SW620 cells was investigated by WST assays.
(§2) Basically, the evaluation was performed using methods previously reported by our group[20],[23]. Cytotoxic activities of compounds against MIA PaCa-2 (American Type Culture Collection), SW620 (European Collection of Authenticated Cell Cultures) were measured by WST-8 assay according to manufacturer’s protocol. Briefly, cells (1 × 10^4 cells/well) in a 96-well plate were cultured in medium (for MIA PaCa-2, D-MEM (Wako, Japan) containing 10% fetal bovine serum (Funakoshi, Japan), 100 units/mL penicillin G and 100 µg/mL streptomycin (Wako, Japan), for SW620, RPMI-1640 (Wako, Japan) containing 10% fetal bovine serum, 100 units/mL penicillin G and 100 µg/mL streptomycin) were cultured at 37 °C for 24 h under 5% CO2 atmosphere. Then, cells were treated with test compounds (final DMSO concentration was 1%) at 37 °C for 72 h under 5% CO2 atmosphere. Then, cells were treated with a solution of Cell Counting Kit-8® (Dojindo, Japan) for 3 h. After that, cell viabilities were determined based on the measurement of absorption at 450 nm of the wells by using TECAN Infinite® M200 microplate reader. The results were expressed as a percentage of the negative control (cells treated with DMSO only), and that value was fixed at 100%.

SW620 cells = experiment: WST-8 cytotoxicity assay, SW620; details: for IC50: read-out: IC50 SW620, human colon cancer cell, 72 h, mean ± SE (n = 3)
Procedure: as §1, §2

[1] = Investigation of maximum tolerated dose (body weight of mice); type: in vivo, mouse; details: 14 days
Procedure: (§3) Toxicity Body weight change is an indicator of systemic toxicity. Accordingly, the body weights of mice intraperitoneally treated with different doses (0.04 and 0.4 µg/mouse) of either 1 or 3 were measured (Fig. S1). […] A blood hematological examination (including nineteen parameters) was also conducted on these mice on Day 14 (Fig. S2). There were no significant changes in almost any of the parameters in the mice treated with either 1 or 3 at doses of 0.04 or 0.4 µg/mouse.

[2] = Hepatic microsomal stability assay, mouse; type: in vitro ADME; details: 0.2 mg/mL microsomes, 37 °C, 30 min; for CLint scaled: microsomes, 1 μM; for CLint scaled at 1 μM: mouse liver microsomes, pH 7.4, 1 μM
Procedure: (§4) Before investigating the in vivo efficacy of 3, its metabolic stability was evaluated by treatment with human or mouse liver microsomes at 37 °C for 30 min, and the remaining analogues were analyzed by LC–MS/MS (Table 3). […] This means that approximately 67% of 3 was unaffected by human liver microsomes.
(§5) Basically, the analysis was performed using methods previously reported. Disappearance of the parent compound over time was measured by using the amount of drug at time zero as a reference. After 5 min of preincubation, 1 mM NADPH (final concentration, the same applies to the following, NADPH( +)) or 0.1 M phosphate buffer (pH 7.4, NADPH(−))) was added to a mixture containing 1 μM of the test compound, 0.2 mg/mL of human or mouse liver microsomes (Sekisui XenoTech LLC (Kansas City, KS)), 1 mM EDTA and 0.1 M phosphate buffer (pH 7.4) and incubated at 37 °C for 30 min by rotation at 60 rpm. An aliquot of 50 μL of the incubation mixture was sampled and added to 250 μL of chilled acetonitrile/internal standard (IS). After centrifuging for 15 min at 3150×g (4 °C), the supernatants were analyzed by LC–MS/MS. Hepatic microsomal stability (mL/min/kg, CLint) was calculated according to the previous report, using 48.8 and 45.4 mg MS protein/g liver and 25.7 and 87.5 g liver/kg body weight as scaling factors for human and mouse, respectively.
(§6) Basically, the analysis was performed using methods previously reported. An LC-MS8060 instrument equipped with a Shimadzu Nexera series LC system (Shimadzu, Kyoto, Japan) was used. All compounds were analyzed in multi-reaction monitoring mode under electron spray ionization conditions. The analytical column used was a […] C18 MGIII (3 μm × 2.0 mmID × 35 mm; OSAKA SODA, Osaka, Japan) at 50 °C. The gradient mobile phase consisted of 0.1% formic acid in water (mobile phase A,) and 0.1% formic acid in acetonitrile (mobile phase B) at a total flow rate of 1 mL/min. The initial mobile phase composition was 10% B, which was held constant for 0.2 min, increased in a linear fashion to 90% B over 1 min, then held constant for 0.8 min, and finally brought back to the initial condition of 10% B over 0.01 min and re-equilibrated for 1 min. The transitions (precursor ion > product ion) of echinomycin, 3 and IS (methyl testosterone) are 1101.45 > 1053.5 (positive), 1083.5 > 523.95 (negative), and 303.1 > 109.1 (positive), respectively.

[3] = Hepatic microsomal stability assay, human; type: in vitro ADME; details: 30 min; for CLint scaled: microsomes, 1 μM; for CLint scaled / CLint scaled at 1 μM: 0.2 mg/mL microsomes, 37 °C; for CLint scaled at 1 μM: human liver microsomes, pH 7.4, 1 μM
Procedure: as §4, §5, §6

[4] = Serum biochemistry / blood examination of treated mice; type: in vivo; details: 0.4 µg/mouse i.p., Day 14
Procedure: as §3
Male BALB/c mice (7 weeks old) were purchased from Charles River Laboratories Japan, Inc. Each compound was intraperitoneally injected daily for 14 days. […] Serum was collected by centrifuging blood at 5000 rpm for 10 min. Biochemistry was performed in Oriental Yeast Co., Ltd, Japan.

[5] = NADPH(+), read-out: Metabolic stability (CLint) Mouse NADPH(+)
[6] = NADPH(−), read-out: Metabolic stability (CLint) Mouse NADPH(−)
[7] = NADPH(+), read-out: Metabolic stability (CLint) Human NADPH(+)
[8] = NADPH(−), read-out: Metabolic stability (CLint) Human NADPH(−)

## CC(C)[C@H]1C(=O)OC[C@@H](NC(=O)c2nc3ccccc3cc2O)C(=O)N[C@@H](C)C(=O)N(C)[C@H]2CSC[C@@H](C(=O)N1C)N(C)C(=O)[C@H](C)NC(=O)[C@H](NC(=O)c1nc3ccccc3cc1O)COC(=O)[C@H](C(C)C)N(C)C2=O [Compound 3]
MIA PaCa-2 cells
  IC50: 0.0014 ± 0.0001 µM
SW620 cells
  IC50: 0.00085 ± 0.00013 µM
[1]; i.p. 0.04 and 0.4 µg/mouse, daily
  body weight: did not differ greatly from those of the control
[1]; i.p. daily, body weight and blood examination
  dose up to which no significant toxicity is shown: ≥ 0.04 µg/mouse
[1]; i.p. daily, expected
  maximum tolerated dose: 0.04 µg/mouse
[2]; [5]
  CLint scaled: 386 mL/min/kg
[2]; [6]
  CLint scaled: 118 mL/min/kg
[3]; liver microsomes, pH 7.4, 37 °C, in the presence of NADPH, read-out: fraction unaffected by human liver microsomes
  remaining at 0.5 h, 1 μM: ~67%
[3]; [7]
  CLint scaled: 83.7 mL/min/kg
[3]; [8]
  CLint scaled: 45.1 mL/min/kg
[4]
  alanine aminotransferase (ALT): increase
  aspartate aminotransferase (AST): increase
  lactate dehydrogenase (LDH): increase
  total bilirubin (T-BIL): decrease

## CC(C)[C@H]1C(=O)OC[C@@H](NC(=O)c2ccc3cc[nH]c3c2)C(=O)N[C@@H](C)C(=O)N(C)[C@H]2CSC[C@@H](C(=O)N1C)N(C)C(=O)[C@H](C)NC(=O)[C@H](NC(=O)c1ccc3cc[nH]c3c1)COC(=O)[C@H](C(C)C)N(C)C2=O [Compound 11, {N-(Indol-6-carbonyl)-D-Ser-L-Ala-N-Boc-N-Me-L-Cys-N-Me-L-Val}2 sulfide]
MIA PaCa-2 cells
  IC50: > 10 µM
SW620 cells
  IC50: > 10 µM

## CC(C)[C@H]1C(=O)OC[C@@H](NC(=O)c2cccc3cc[nH]c23)C(=O)N[C@@H](C)C(=O)N(C)[C@H]2CSC[C@@H](C(=O)N1C)N(C)C(=O)[C@H](C)NC(=O)[C@H](NC(=O)c1cccc3cc[nH]c13)COC(=O)[C@H](C(C)C)N(C)C2=O [Compound 12, {N-(Indol-7-carbonyl)-D-Ser-L-Ala-N-Boc-N-Me-L-Cys-N-Me-L-Val}2 sulfide]
MIA PaCa-2 cells
  IC50: > 10 µM
SW620 cells
  IC50: > 10 µM

## CC(C)[C@H]1C(=O)OC[C@@H](NC(=O)c2cc3ccccc3o2)C(=O)N[C@@H](C)C(=O)N(C)[C@H]2CSC[C@@H](C(=O)N1C)N(C)C(=O)[C@H](C)NC(=O)[C@H](NC(=O)c1cc3ccccc3o1)COC(=O)[C@H](C(C)C)N(C)C2=O [Compound 13, {N-(Benzofurane-2-carbonyl)-D-Ser-L-Ala-N-Boc-N-Me-L-Cys-N-Me-L-Val}2 sulfide]
MIA PaCa-2 cells
  IC50: > 10 µM
SW620 cells
  IC50: > 10 µM

## CC(C)[C@H]1C(=O)OC[C@@H](NC(=O)c2cc3ccccc3s2)C(=O)N[C@@H](C)C(=O)N(C)[C@H]2CSC[C@@H](C(=O)N1C)N(C)C(=O)[C@H](C)NC(=O)[C@H](NC(=O)c1cc3ccccc3s1)COC(=O)[C@H](C(C)C)N(C)C2=O [Compound 14, {N-(Benzothiophene-2-carbonyl)-D-Ser-L-Ala-N-Boc-N-Me-L-Cys-N-Me-L-Val}2 sulfide]
MIA PaCa-2 cells
  IC50: > 10 µM
SW620 cells
  IC50: > 10 µM

## CC(C)[C@H]1C(=O)OC[C@@H](NC(=O)c2ccc3ocnc3c2)C(=O)N[C@@H](C)C(=O)N(C)[C@H]2CSC[C@@H](C(=O)N1C)N(C)C(=O)[C@H](C)NC(=O)[C@H](NC(=O)c1ccc3ocnc3c1)COC(=O)[C@H](C(C)C)N(C)C2=O [Compound 15, {N-(Benzoxazole-5-carbonyl)-D-Ser-L-Ala-N-Boc-N-Me-L-Cys-N-Me-L-Val}2 sulfide]
MIA PaCa-2 cells
  IC50: > 10 µM
SW620 cells
  IC50: > 10 µM

## CC(C)[C@H]1C(=O)OC[C@@H](NC(=O)c2ccc3ncoc3c2)C(=O)N[C@@H](C)C(=O)N(C)[C@H]2CSC[C@@H](C(=O)N1C)N(C)C(=O)[C@H](C)NC(=O)[C@H](NC(=O)c1ccc3ncoc3c1)COC(=O)[C@H](C(C)C)N(C)C2=O [Compound 16, {N-(Benzoxazole-6-carbonyl)-D-Ser-L-Ala-N-Boc-N-Me-L-Cys-N-Me-L-Val}2 sulfide]
MIA PaCa-2 cells
  IC50: > 10 µM
SW620 cells
  IC50: > 10 µM

## CC(C)[C@H]1C(=O)OC[C@@H](NC(=O)c2ccc3ncsc3c2)C(=O)N[C@@H](C)C(=O)N(C)[C@H]2CSC[C@@H](C(=O)N1C)N(C)C(=O)[C@H](C)NC(=O)[C@H](NC(=O)c1ccc3ncsc3c1)COC(=O)[C@H](C(C)C)N(C)C2=O [Compound 17]
MIA PaCa-2 cells
  IC50: > 10 µM
SW620 cells
  IC50: > 10 µM

## CC(C)[C@H]1C(=O)OC[C@@H](NC(=O)c2ccc(C(=O)c3ccccc3)cc2)C(=O)N[C@@H](C)C(=O)N(C)[C@H]2CSC[C@@H](C(=O)N1C)N(C)C(=O)[C@H](C)NC(=O)[C@H](NC(=O)c1ccc(C(=O)c3ccccc3)cc1)COC(=O)[C@H](C(C)C)N(C)C2=O [Compound 18, {N-(4-Benzoylphenylcarbonyl)-D-Ser-L-Ala-N-Boc-N-Me-L-Cys-N-Me-L-Val}2 sulfide]
MIA PaCa-2 cells
  IC50: > 10 µM
SW620 cells
  cytotoxicity to SW620 cells (in words): lost their cytotoxicity
  IC50: > 10 µM

## CC(C)[C@H]1C(=O)OC[C@@H](NC(=O)c2ccc3c(c2)C(=O)c2ccccc2C3=O)C(=O)N[C@@H](C)C(=O)N(C)[C@H]2CSC[C@@H](C(=O)N1C)N(C)C(=O)[C@H](C)NC(=O)[C@H](NC(=O)c1ccc3c(c1)C(=O)c1ccccc1C3=O)COC(=O)[C@H](C(C)C)N(C)C2=O [Compound 19, {N-(Anthraquinone-2carbonyl)-D-Ser-L-Ala-N-Boc-N-Me-L-Cys-N-Me-L-Val}2 sulfide]
MIA PaCa-2 cells
  IC50: > 10 µM
SW620 cells
  cytotoxicity to SW620 cells (in words): lost their cytotoxicity
  IC50: > 10 µM

## Cc1ncc2n1-c1ccc(Cl)cc1C(c1ccccc1F)=NC2 [Midazolam]
[2]; [5]
  CLint scaled at 1 μM: 4010 mL/min/kg
[2]; [6]
  CLint scaled at 1 μM: < 69.8 mL/min/kg
[3]; [7]
  CLint scaled at 1 μM: 435 mL/min/kg
[3]; [8]
  CLint scaled at 1 μM: < 22 mL/min/kg
